Test results from ChEMBL document CHEMBL3091359, “Potent oxazolidinone antibacterials with heteroaromatic C-ring substructure” (ACS Med Chem Lett, 2013).
Converted amounts (≈) assume the structure as drawn.

How the values were obtained:
Staphylococcus aureus [1] = test: Antibacterial activity against Staphylococcus aureus SR20549 clinical isolate assessed as […] by CLSI broth microdilution method; type: functional
Moraxella catarrhalis = test: Antibacterial activity against Moraxella catarrhalis SR26840 clinical isolate assessed as […] by CLSI broth microdilution method; type: functional
Haemophilus influenzae = test: Antibacterial activity against Haemophilus influenzae SR27914 clinical isolate assessed as […] by CLSI broth microdilution method; type: functional
Streptococcus pneumoniae [2] = test: Antibacterial activity against Streptococcus pneumoniae SR26207 clinical isolate assessed as […] by CLSI broth microdilution method; type: functional
MAO-B = target: T1, MAO-B (Rattus norvegicus, UniProt P19643); test: Inhibition of rat forebrain MAO-B using [14C]PEA as substrate at 30 uM preincubated for 20 mins followed by substrate addition measured after 10 mins by liquid scintillation counting analysis; conditions: probe [14C]PEA
T1 sequence (P19643 whole entry): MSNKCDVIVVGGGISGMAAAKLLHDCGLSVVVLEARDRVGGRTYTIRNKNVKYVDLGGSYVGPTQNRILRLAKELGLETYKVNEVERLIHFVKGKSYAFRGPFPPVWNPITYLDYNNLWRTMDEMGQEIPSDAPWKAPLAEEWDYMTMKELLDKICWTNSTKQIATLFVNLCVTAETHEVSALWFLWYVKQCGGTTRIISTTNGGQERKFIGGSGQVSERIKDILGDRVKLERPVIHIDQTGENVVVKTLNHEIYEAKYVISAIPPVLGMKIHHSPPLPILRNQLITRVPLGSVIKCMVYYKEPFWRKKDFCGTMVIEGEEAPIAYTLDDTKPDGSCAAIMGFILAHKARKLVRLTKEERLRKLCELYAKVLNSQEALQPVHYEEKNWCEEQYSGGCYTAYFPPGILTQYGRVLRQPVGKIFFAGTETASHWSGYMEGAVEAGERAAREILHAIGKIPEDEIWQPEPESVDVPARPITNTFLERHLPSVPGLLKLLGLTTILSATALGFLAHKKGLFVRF

Enterococcus faecalis = test: Antibacterial activity against Enterococcus faecalis SR1004 clinical isolate assessed as […] by CLSI broth microdilution method; type: functional
Enterococcus faecium = test: Antibacterial activity against Enterococcus faecium SR7940 clinical isolate assessed as […] by CLSI broth microdilution method; type: functional
Cytochrome P450 2C9 = Cytochrome P450 2C9 (Homo sapiens, UniProt P11712); test: Inhibition of human CYP2C9 assessed as tolbutamide hydroxylation after 20 mins by LC-MS/MS analysis; type: ADME
Sequence of Cytochrome P450 2C9 (P11712 whole entry): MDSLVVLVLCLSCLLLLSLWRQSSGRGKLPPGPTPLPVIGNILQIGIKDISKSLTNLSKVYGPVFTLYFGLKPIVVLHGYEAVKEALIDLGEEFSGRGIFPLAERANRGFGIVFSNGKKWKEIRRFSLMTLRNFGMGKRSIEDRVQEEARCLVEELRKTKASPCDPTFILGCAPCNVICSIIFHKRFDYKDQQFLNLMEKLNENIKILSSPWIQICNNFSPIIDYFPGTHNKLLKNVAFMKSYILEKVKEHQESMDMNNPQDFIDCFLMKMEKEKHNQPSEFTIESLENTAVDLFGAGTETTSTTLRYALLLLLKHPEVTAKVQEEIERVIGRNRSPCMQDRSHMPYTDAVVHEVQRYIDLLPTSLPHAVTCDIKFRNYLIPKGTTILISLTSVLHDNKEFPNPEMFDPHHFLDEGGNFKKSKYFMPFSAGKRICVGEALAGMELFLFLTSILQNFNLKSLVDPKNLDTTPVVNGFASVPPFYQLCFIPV

Cytochrome P450 1A2 = target: T2, Cytochrome P450 1A2 (Homo sapiens, UniProt P05177); test: Inhibition of human CYP1A2 assessed as ethoxyresorufin O-deethylation after 20 mins by fluorescence plate reader; type: ADME
T2 sequence (P05177 whole entry): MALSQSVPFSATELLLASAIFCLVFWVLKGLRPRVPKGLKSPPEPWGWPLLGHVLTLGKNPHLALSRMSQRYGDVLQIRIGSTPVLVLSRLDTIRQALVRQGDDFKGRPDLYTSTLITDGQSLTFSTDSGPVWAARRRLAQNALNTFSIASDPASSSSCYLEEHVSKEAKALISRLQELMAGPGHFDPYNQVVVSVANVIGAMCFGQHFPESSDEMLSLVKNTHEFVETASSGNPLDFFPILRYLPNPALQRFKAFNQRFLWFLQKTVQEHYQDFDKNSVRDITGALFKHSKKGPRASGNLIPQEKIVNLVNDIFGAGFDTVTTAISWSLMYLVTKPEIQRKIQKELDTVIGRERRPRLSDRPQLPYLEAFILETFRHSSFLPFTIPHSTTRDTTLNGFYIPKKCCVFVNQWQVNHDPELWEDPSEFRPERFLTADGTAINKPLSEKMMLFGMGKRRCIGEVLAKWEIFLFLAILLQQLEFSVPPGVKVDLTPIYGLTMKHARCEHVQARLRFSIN

Staphylococcus aureus [3] = test: Antibacterial activity against methicillin-resistant Staphylococcus aureus SR3637 clinical isolate infected in po dosed JCL/ICR systemic infection model assessed as mortality administered after 1 hr of infection measured for 7 days; type: functional
Staphylococcus aureus [4] = test: Antibacterial activity against Staphylococcus aureus Smith clinical isolate assessed as […] by CLSI broth microdilution method; type: functional
Cytochrome P450 3A4 = Cytochrome P450 3A4 (Homo sapiens, UniProt P08684); test: Inhibition of human CYP3A4 assessed as terfenadine hydroxylation after 20 mins by LC-MS/MS analysis; type: ADME
Sequence of Cytochrome P450 3A4 (P08684 whole entry): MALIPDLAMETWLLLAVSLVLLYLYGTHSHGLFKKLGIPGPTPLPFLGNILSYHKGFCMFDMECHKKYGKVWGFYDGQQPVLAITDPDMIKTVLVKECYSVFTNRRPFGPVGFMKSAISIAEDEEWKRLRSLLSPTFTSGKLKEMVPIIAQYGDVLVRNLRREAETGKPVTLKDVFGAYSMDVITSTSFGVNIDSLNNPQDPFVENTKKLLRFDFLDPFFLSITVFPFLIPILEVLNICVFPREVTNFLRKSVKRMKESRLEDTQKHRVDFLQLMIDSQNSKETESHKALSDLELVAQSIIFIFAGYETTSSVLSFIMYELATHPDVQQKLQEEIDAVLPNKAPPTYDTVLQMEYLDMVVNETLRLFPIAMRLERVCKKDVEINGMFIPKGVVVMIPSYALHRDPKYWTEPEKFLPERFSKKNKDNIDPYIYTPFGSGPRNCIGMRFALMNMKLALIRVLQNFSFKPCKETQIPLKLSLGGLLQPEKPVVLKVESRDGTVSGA

Staphylococcus aureus [5] = test: Antibacterial activity against methicillin-resistant Staphylococcus aureus SR3637 clinical isolate assessed as […] by CLSI broth microdilution method; type: functional
[6] = Cmax in ICR mouse at 5.56 mg/kg, po by LC-MS/MS analysis; type: ADME, organism-based; parameters: dose 5.56 mg/kg, route oral; conditions: in vivo
Streptococcus pneumoniae [7] = test: Antibacterial activity against penicillin-resistant Streptococcus pneumoniae SR11031 clinical isolate assessed as […] by CLSI broth microdilution method; type: functional
Staphylococcus aureus [8] = test: Ratio of linezolid MIC to compound MIC for Staphylococcus aureus SR20549 clinical isolate; type: functional
Staphylococcus aureus [9] = test: Antibacterial activity against linezolid-resistant Staphylococcus aureus NRS271 clinical isolate harboring G2576T mutation in peptidyl transferase center domain V of 23S rRNA gene assessed as […] by CLSI broth microdilution method; type: functional
Staphylococcus aureus [10] = test: Potency index, ratio of linezolid ED50 to compound ED50 for methicillin-resistant Staphylococcus aureus SR3637 in po dosed JCL/ICR mouse systemic infection model; type: functional
MAO-A = target: T3, MAO-A (Rattus norvegicus, UniProt P21396); test: Inhibition of rat forebrain MAO-A using [14C]5-HT as substrate at 30 uM preincubated for 20 mins followed by substrate addition measured after 5 mins by liquid scintillation counting analysis; conditions: probe [14C]5-HT
T3 sequence (P21396 whole entry): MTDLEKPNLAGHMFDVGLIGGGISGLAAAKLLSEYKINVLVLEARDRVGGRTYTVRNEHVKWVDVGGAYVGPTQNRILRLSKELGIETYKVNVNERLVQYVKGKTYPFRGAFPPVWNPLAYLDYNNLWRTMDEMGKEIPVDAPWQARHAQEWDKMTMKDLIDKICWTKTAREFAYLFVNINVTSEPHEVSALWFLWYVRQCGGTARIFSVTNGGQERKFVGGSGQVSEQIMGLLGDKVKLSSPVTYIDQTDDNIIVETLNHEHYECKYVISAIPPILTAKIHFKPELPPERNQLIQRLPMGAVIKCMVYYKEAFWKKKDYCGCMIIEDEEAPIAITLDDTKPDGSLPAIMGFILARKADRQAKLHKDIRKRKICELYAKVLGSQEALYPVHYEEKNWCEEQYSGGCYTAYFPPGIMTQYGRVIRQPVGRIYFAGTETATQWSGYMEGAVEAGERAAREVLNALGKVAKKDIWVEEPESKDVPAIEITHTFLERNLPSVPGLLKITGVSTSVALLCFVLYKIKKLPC

Cytochrome P450 2D6 = Cytochrome P450 2D6 (Homo sapiens, UniProt P10635); test: Inhibition of human CYP2D6 assessed as dextromethorphan O-demethylation after 20 mins by LC-MS/MS analysis; type: ADME
Sequence of Cytochrome P450 2D6 (P10635 whole entry): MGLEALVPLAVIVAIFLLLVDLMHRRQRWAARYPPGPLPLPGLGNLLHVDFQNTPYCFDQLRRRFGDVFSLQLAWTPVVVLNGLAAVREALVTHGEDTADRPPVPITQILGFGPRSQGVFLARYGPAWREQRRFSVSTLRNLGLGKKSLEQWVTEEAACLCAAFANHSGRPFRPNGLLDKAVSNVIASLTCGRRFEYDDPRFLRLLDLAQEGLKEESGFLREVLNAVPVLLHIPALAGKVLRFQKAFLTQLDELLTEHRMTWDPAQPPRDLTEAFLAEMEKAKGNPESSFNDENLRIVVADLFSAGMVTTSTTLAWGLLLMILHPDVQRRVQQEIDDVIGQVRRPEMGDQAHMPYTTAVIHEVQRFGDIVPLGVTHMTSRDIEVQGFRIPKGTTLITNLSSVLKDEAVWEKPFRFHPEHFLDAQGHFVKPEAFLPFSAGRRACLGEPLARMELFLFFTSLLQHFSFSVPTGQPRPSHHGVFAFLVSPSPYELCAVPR

Staphylococcus aureus [11] = test: Ratio of linezolid MIC to compound MIC for Staphylococcus aureus Smith clinical isolate; type: functional
[12] = AUC (infinity) in ICR mouse at 5.56 mg/kg, po by LC-MS/MS analysis; type: ADME, organism-based; parameters: time infinity, dose 5.56 mg/kg, route oral; conditions: plasma
[13] = Tmax in ICR mouse at 5.56 mg/kg, po by LC-MS/MS analysis; type: ADME, organism-based; parameters: dose 5.56 mg/kg, route oral; conditions: in vivo
Staphylococcus aureus [14] = test: Antibacterial activity against methicillin-resistant Staphylococcus aureus SR3637 clinical isolate infected in iv dosed JCL/ICR systemic infection model assessed as mortality administered after 1 hr of infection measured for 7 days; type: functional
[15] = Tmax in ICR mouse at 67.7 mg/kg, po by LC-MS/MS analysis; type: ADME, organism-based; parameters: dose 67.7 mg/kg, route oral; conditions: in vivo
[16] = Cmax in ICR mouse at 67.7 mg/kg, po by LC-MS/MS analysis; type: ADME, organism-based; parameters: dose 67.7 mg/kg, route oral; conditions: in vivo
[17] = AUC (infinity) in ICR mouse at 67.7 mg/kg, po by LC-MS/MS analysis; type: ADME, organism-based; parameters: time infinity, dose 67.7 mg/kg, route oral; conditions: plasma

Row | SMILES | MIC (Staphylococcus aureus [1]) [µg/mL] | MIC (Moraxella catarrhalis) [µg/mL] | MIC (Haemophilus influenzae) [µg/mL] | MIC (Streptococcus pneumoniae [2]) [µg/mL] | inhibition at 10 min, 30 µM (MAO-B) [%] | MIC (Enterococcus faecalis) [µg/mL] | MIC (Enterococcus faecium) [µg/mL] | IC50 (Cytochrome P450 2C9) [µM] | IC50 (Cytochrome P450 1A2) [µM] | ED50 (Staphylococcus aureus [3]) [mg/kg] | MIC (Staphylococcus aureus [4]) [µg/mL] | IC50 (Cytochrome P450 3A4) [µM] | MIC (Staphylococcus aureus [5]) [µg/mL] | MIC (Streptococcus pneumoniae [7]) [µg/mL] | MIC (Staphylococcus aureus [9]) [µg/mL] | inhibition at 5 min, 30 µM (MAO-A) [%] | IC50 (Cytochrome P450 2D6) [µM] | ED50 (Staphylococcus aureus [14]) [mg/kg] | other results
1 | CC(=O)NC[C@H]1CN(c2ccc(-c3ccn4ncnc4c3)c(F)c2)C(=O)O1 | 0.25 (≈ 0.677 µM) | 4 (≈ 10.8 µM) | 4 (≈ 10.8 µM) | ≤ 0.063 | 78.2 | 0.25 (≈ 0.677 µM) | 0.25 (≈ 0.677 µM) | > 20 | > 20 | 0.55 | 0.5 (≈ 1.35 µM) | > 20 | 0.25 (≈ 0.677 µM) | ≤ 0.063 | 4 (≈ 10.8 µM) | 55.9 | > 20 | 0.34 | Cmax [6]: 4780 ng/mL; Ratio (Staphylococcus aureus [8]): 2; Ratio ED50 (Staphylococcus aureus [10]): 4; Ratio (Staphylococcus aureus [11]): 4; AUC(0-inf) [12]: 30900 ng·h/mL; Tmax [13]: 60 min
2 | O=C1O[C@@H](Cn2ccnn2)CN1c1ccc(-c2ccc3nccn3c2)c(F)c1 | 0.25 (≈ 0.661 µM) | 4 (≈ 10.6 µM) | 4 (≈ 10.6 µM) | ≤ 0.063 | – | 0.5 (≈ 1.32 µM) | 0.5 (≈ 1.32 µM) | – | – | – | 0.5 (≈ 1.32 µM) | – | 0.25 (≈ 0.661 µM) | ≤ 0.063 | 4 (≈ 10.6 µM) | – | – | – | –
3 | O=C1O[C@@H](Cn2ccnn2)CN1c1ccc(-c2ccn3ccnc3c2)c(F)c1 | 0.125 (≈ 0.33 µM) | 2 (≈ 5.29 µM) | 2 (≈ 5.29 µM) | ≤ 0.063 | 26.7 | 0.25 (≈ 0.661 µM) | 0.25 (≈ 0.661 µM) | > 20 | > 20 | 1.02 | 0.25 (≈ 0.661 µM) | 15 | 0.125 (≈ 0.33 µM) | ≤ 0.063 | 2 (≈ 5.29 µM) | 41.2 | > 20 | 0.95 | –
4 | O=C1O[C@@H](Cn2ccnn2)CN1c1ccc(-c2ccc3ncnn3c2)c(F)c1 | 0.25 (≈ 0.659 µM) | 8 (≈ 21.1 µM) | 4 (≈ 10.5 µM) | ≤ 0.063 | – | 0.5 (≈ 1.32 µM) | 0.25 (≈ 0.659 µM) | – | – | – | 0.5 (≈ 1.32 µM) | – | 0.25 (≈ 0.659 µM) | ≤ 0.063 | 8 (≈ 21.1 µM) | – | – | – | –
5 | O=C1O[C@@H](Cn2ccnn2)CN1c1ccc(-c2ccn3ncnc3c2)c(F)c1 | 0.125 (≈ 0.33 µM) | 4 (≈ 10.5 µM) | 2 (≈ 5.27 µM) | ≤ 0.063 | 27.9 | 0.25 (≈ 0.659 µM) | 0.25 (≈ 0.659 µM) | > 20 | > 20 | 0.95 | 0.25 (≈ 0.659 µM) | > 20 | 0.25 (≈ 0.659 µM) | ≤ 0.063 | 2 (≈ 5.27 µM) | 33.2 | > 20 | – | –
6 | CC(=O)NC[C@H]1CN(c2ccc(N3CCOCC3)c(F)c2)C(=O)O1 [LINEZOLID] | – | 8 (≈ 23.7 µM) | 16 (≈ 47.4 µM) | – | – | – | 2 (≈ 5.93 µM) | > 20 | > 20 | 1.98 | – | > 20 | – | – | 32 (≈ 94.9 µM) | – | > 20 | – | Tmax [15]: 30 min; Cmax [16]: 37000 ng/mL; AUC(0-inf) [17]: 162000 ng·h/mL
